Read-outs that look alike come from different tables or passages of the source. Marks after values point to notes of the source that are not given here.
Legend:
S. mansoni adult worms = assay: Schistosomicidal activity ex vivo, adult worms (Cell Titer Glo), alone or with channel blockers; assay type: cell-based; details: for LD50 ex vivo S. mansoni adult: 24 h exposure, compound alone; for viability at 10 µM: Conc. 10 µM; for viability at 25 µM: Conc. 25 µM; for viability at 35 µM: Conc. 35 µM
Procedure: Three-week old, female Swiss-Webster mice obtained from the Charles River were housed in the Comparative Research Center of Rush University Medical Center. Mice were infected by percutaneous tail exposure to about 200 S. mansoni or 50 S. japonicum cercaria for adult worms and about 1000 cercaria for juvenile S. mansoni worms through natural transdermal penetration of the cercariae for 1 h[81].
DMSO formulated compounds were diluted with phenol red free M199 medium or RPMI medium for NTS or juvenile and adult worms, respectively, at <1% DMSO final concentrations. NTS, juvenile and adult worms from overnight cultures were tested against compounds in triplicate. Controls were treated with DMSO alone or 5 µM AF as a positive control in appropriate medium. […] Schistosome viabilities in the presence of the compounds were assessed using this formula: % Viability = Averages of Test / Averages of DMSO Control x 100.

Human TrxR1 = biological target: T1, Human TrxR1 (Homo sapiens, UniProt Q16881); assay: Human TrxR1 enzyme inhibition (DTNB reduction); assay type: biochemical
T1 construct: made in house
T1 sequence (Q16881 1-499 isoform Q16881-5): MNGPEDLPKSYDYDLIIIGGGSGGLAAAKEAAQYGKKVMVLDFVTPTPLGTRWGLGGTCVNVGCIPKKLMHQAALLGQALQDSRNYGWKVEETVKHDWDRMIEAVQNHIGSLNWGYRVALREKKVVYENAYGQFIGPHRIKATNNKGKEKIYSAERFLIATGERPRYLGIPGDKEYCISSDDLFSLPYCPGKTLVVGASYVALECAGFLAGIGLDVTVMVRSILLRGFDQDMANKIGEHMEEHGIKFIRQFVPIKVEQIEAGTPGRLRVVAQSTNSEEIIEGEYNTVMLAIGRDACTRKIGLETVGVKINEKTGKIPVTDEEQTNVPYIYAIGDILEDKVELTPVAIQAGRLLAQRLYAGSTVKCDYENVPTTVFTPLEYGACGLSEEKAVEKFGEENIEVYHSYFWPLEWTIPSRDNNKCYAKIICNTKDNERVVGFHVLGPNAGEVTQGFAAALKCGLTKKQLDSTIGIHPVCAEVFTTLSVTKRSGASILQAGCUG
Procedure: Recombinant TGR, human TrxR1, B. malayi (Bm)TrxR and human GR proteins were expressed and purified as described[20],[69],[79]. The codon optimized sequence for P. falciparum (PfTrxR, https://www.ncbi.nlm.nih.gov/protein/CAA60574.1/) with an N-terminal 6-His tag was synthesized and inserted into pET15b (GenScript) and expressed in BL21 (DE3) cells and purified as described for human GR[20]. TGR and TrxR enzyme inhibition assays were performed in triplicate at 25 °C as described[20] in 0.1 M potassium phosphate (pH 7.4), 10 mM EDTA, 100 µM NADPH and 0.01% Tween-20. […] The reaction was started with addition of an equal volume of DTNB (6 mM) and NADPH (100 µM) and the increase in A412 during the first 3 min was recorded. […] The reaction was preincubated for 15 min. Activity was initiated with the addition of 1 mM GSSG and 100 μM NADPH and initial rates of NADPH oxidation were monitored at 340 nm. The reactions were done in triplicate. The IC50 was calculated in GraphPad Prism.

Vero cells = assay: Cytotoxicity in mammalian cells (Cell Titer Glo); assay type: cell-based; details: for LD50 ex vivo VERO: African green monkey, 24 h; for EC50: Chlorocebus sabaeus, Vero, estimate from raw data, read-out: EC50 viability of Vero cells; for % viability: Vero cells
Procedure: Following overnight incubation, formulated DMSO-compound stock solutions were diluted with DMEM at <1% DMSO final concentrations. […] Vero cells treated similarly with different concentrations of PZQ, MZM and AF (Cayman Chemicals) were used as positive controls.

[1] = test system: S. mansoni newly transformed schistosomula (NTS); assay: Schistosomicidal activity ex vivo, NTS (Cell Titer Glo); assay type: cell-based; details: for LD50 ex vivo S. mansoni NTS: 24 h exposure, Cell TiterGlo; for % viability: S. mansoni NTS
Procedure: Oncomelania hupensis subsp. hupensis, Chinese strain, infected with S. japonicum, Chinese strain, and Biomphalaria glabrata, strain NMRI, infected with S. mansoni, strain NMRI, were provided by the NIAID Schistosomiasis Resource Center for distribution through BEI Resources, NIAID, NIH. After infections were patent, snails were exposed to bright light for 1 hr to obtain cercariae. Cercariae were mechanically transformed to schistosomula. Briefly, cercariae were placed on ice for 30 min and then centrifuged at 350 × g for 10 mins. The supernatant was decanted and 2 ml of serum-free M199 medium was added to cercarial pellets and vortexed for 1 min until cercarial tails were detached. NTS were purified by layering on 4 °C Percoll gradient suspension containing Eagle’s minimum essential medium, penicillin-streptomycin (10,000 U per ml penicillin/10,000 U per ml streptomycin), and 1 M HEPES in 0.85% NaCl with cercariae suspension and centrifuged at 500 × g for 15 min. Cercarial pellets were resuspended and washed thrice in serum-free M199 medium and collected at 100 × g for 5 min. NTS (240) were transferred to U-bottom 96 well assay plates containing 200 µl of M199 medium supplemented with 5.5 mM D-glucose, penicillin-streptomycin and 5% heat inactivated fetal bovine serum and incubated at 37 °C in a 5% CO2 incubator overnight.
DMSO formulated compounds were diluted with phenol red free M199 medium or RPMI medium for NTS or juvenile and adult worms, respectively, at <1% DMSO final concentrations. NTS, juvenile and adult worms from overnight cultures were tested against compounds in triplicate. Controls were treated with DMSO alone or 5 µM AF as a positive control in appropriate medium. Worm viability was assessed at 24 or 72 h by measuring ATP content of worms using Cell Titer Glo Assay (Promega) as described. Schistosome viabilities in the presence of the compounds were assessed using this formula: % Viability = Averages of Test / Averages of DMSO Control x 100.

[2] = Schistosoma mansoni, S. mansoni adult worms, Conc. 5 µM, read-out: % viability
[3] = Schistosoma mansoni, S. mansoni adult worms, read-out: % viability
[4] = Schistosoma mansoni, S. mansoni adult worms
[5] = 15 min preincubation (enzyme + 100 µM NADPH + compound), read-out: Human TrxR1 IC50
[6] = 6 h preincubation, read-out: Human TrxR1 IC50 (µM) or inhibition (%) at 66.7 µM: IC50
[7] = hsTrxR, 15 minutes pre-incubation, compound 15 µM
[8] = hsTrxR, 15 minutes pre-incubation, compound 30 µM
[9] = Schistosoma mansoni, 72 h, read-out: % viability, S. mansoni NTS
[10] = hsTrxR, 15 minutes pre-incubation, compound 66.7 µM

Cc1oc(-c2ccc3c(c2)OCO3)nc1CN[C@@H]1C[C@@H]2C[C@H]([C@H]1C)C2(C)C [Compound 1]
LD50 ex vivo S. mansoni adult (S. mansoni adult worms): 12.3 ± 1.30 µM
viability at 5 µM (S. mansoni adult worms; [2]): 77.3%
viability at 10 µM (S. mansoni adult worms; [3]): 58.4%
viability at 25 µM (S. mansoni adult worms; [3]): 0.888%
viability at 35 µM (S. mansoni adult worms; [4]): 0.238%
IC50 (Human TrxR1; [5]): > 66.7 µM
IC50 (Human TrxR1; [6]): 37 ± 3.44 µM
inhibition at 15 µM (Human TrxR1; [7]): 6.99%
inhibition at 30 µM (Human TrxR1; [8]): 11.4%
LD50 ex vivo VERO (Vero cells): >75.5^a µM
EC50 (Vero cells): > 200 µM
LD50 ex vivo S. mansoni NTS [1]: 5.9 ± 0.25 µM
LD50 NTS after 72 h exposure [1]: 2.2 ± 0.19 µM
viability at 1 µM ([1]; Schistosoma mansoni): 89.9%
viability at 5 µM ([1]; Schistosoma mansoni): 52.7%
viability at 15 µM ([1]; Schistosoma mansoni): 30%
viability at 30 µM ([1]; Schistosoma mansoni): 24.6%
viability at 50 µM ([1]; Schistosoma mansoni): 17.6%
viability at 0.25 µM [1, 9]: 92.1%
viability at 1 µM [1, 9]: 71.2%
viability at 3 µM [1, 9]: 48.1%
viability at 6 µM [1, 9]: 23.4%

CCc1ccccc1-c1nc(CN[C@@H]2C[C@@H]3C[C@H]([C@H]2C)C3(C)C)c(C)o1 [Compound 2]
LD50 ex vivo S. mansoni adult (S. mansoni adult worms): 12.5 ± 0.40 µM
viability at 5 µM (S. mansoni adult worms; [2]): 86.9%
viability at 10 µM (S. mansoni adult worms; [3]): 59.5%
viability at 25 µM (S. mansoni adult worms; [3]): 0.114%
viability at 35 µM (S. mansoni adult worms; [4]): 0.0801%
IC50 (Human TrxR1; [5]): > 66.7 µM
IC50 (Human TrxR1; [6]): 50 ± 13.6 µM
inhibition at 15 µM (Human TrxR1; [7]): 2.2%
inhibition at 30 µM (Human TrxR1; [8]): 4.72%
inhibition at 66.7 µM (Human TrxR1; hsTrxR, 15 minutes pre-incubation, compound 66.7 µM, read-out: % inhibition): 11.5%
LD50 ex vivo VERO (Vero cells): 54.7 ± 6.65 µM
EC50 (Vero cells): > 50 µM
LD50 ex vivo S. mansoni NTS [1]: 0.6 ± 0.21 µM
LD50 NTS after 72 h exposure [1]: 0.18 ± 0.007 µM
viability at 1 µM ([1]; Schistosoma mansoni): 47.9%
viability at 5 µM ([1]; Schistosoma mansoni): 0.373%
viability at 15 µM ([1]; Schistosoma mansoni): 0.0945%
viability at 30 µM ([1]; Schistosoma mansoni): 0.0764%
viability at 50 µM ([1]; Schistosoma mansoni): 0.0707%
viability at 0.125 µM [1, 9]: 65%
viability at 0.25 µM [1, 9]: 40.4%
viability at 0.5 µM [1, 9]: 3.04%
viability at 1 µM [1, 9]: 0.411%

C[C@@H]1[C@H]2C[C@@H](C[C@H]1NCc1nc3ccccc3n1C)C2(C)C [C12]
hsTrxR % inhibition (Human TrxR1; 15 minutes pre-incubation, 15 µM): 0.08203%
hsTrxR % inhibition (Human TrxR1; 15 minutes pre-incubation, 30 µM): 0.1317%
hsTrxR % inhibition (Human TrxR1; 15 minutes pre-incubation, 66.7 µM): 0.4216%
% viability ([1]; 5 µM, relative to Worm + M199 control): 95.6217%
% viability ([1]; 15 µM, relative to Worm + M199 control): 91.9573%
% viability ([1]; 30 µM, relative to Worm + M199 control): 88.4326%
% viability ([1]; 50 µM, relative to Worm + M199 control): 85.8655%

C[C@@H]1[C@H]2C[C@@H](C[C@H]1NCc1nc3ccccc3n1C)C2(C)C [Compound 12]
LD50 ex vivo S. mansoni adult (S. mansoni adult worms): >50^a µM
inhibition at 66.7 µM (Human TrxR1; 66.7 µM, 6 h preincubation, read-out: Human TrxR1 IC50 (µM) or inhibition (%) at 66.7 µM: inhibition): 28.6%
IC50 (Human TrxR1; [5]): > 66.7 µM
LD50 ex vivo S. mansoni NTS [1]: >50^a µM

Cc1oc(-c2ccccc2)nc1CN[C@@H]1C[C@@H]2C[C@H]([C@H]1C)C2(C)C [C3]
% inhibition (Human TrxR1; [7]): 11.8305%
% inhibition (Human TrxR1; [8]): 16.5848%
% inhibition (Human TrxR1; [10]): 23.0303%
% viability (Vero cells; Conc. 5 µM): 99.3244%
% viability (Vero cells; Conc. 10 µM): 93.7147%
% viability (Vero cells; Conc. 25 µM): 77.3582%
% viability (Vero cells; Conc. 35 µM): 52.4878%
% viability (Vero cells; Conc. 50 µM): 28.6792%
% viability ([1]; Conc. 5 µM): 6.85%
% viability ([1]; Conc. 15 µM): 0.6968%
% viability ([1]; Conc. 30 µM): 0.5581%
% viability ([1]; Conc. 50 µM): 0.6054%

C[C@@H]1[C@H]2C[C@@H](C[C@H]1NCc1cc(-c3ccccc3)[nH]n1)C2(C)C [Compound 11]
viability at 5 µM (S. mansoni adult worms; Schistosoma mansoni, S. mansoni adult worms, 5 µM, relative to Worm + RPMI control, read-out: % viability): 97.5%
viability at 15 µM (S. mansoni adult worms; Schistosoma mansoni, S. mansoni adult worms, 15 µM, relative to Worm + RPMI control, read-out: % viability): 93.7%
viability at 30 µM (S. mansoni adult worms; Schistosoma mansoni, S. mansoni adult worms, 30 µM, relative to Worm + RPMI control, read-out: % viability): 89.4%
viability at 50 µM (S. mansoni adult worms; Schistosoma mansoni, S. mansoni adult worms, 50 µM, relative to Worm + RPMI control, read-out: % viability): 88.5%
LD50 ex vivo S. mansoni NTS [1]: >50^a µM

Cc1oc(-c2ccc3ccccc3c2)nc1CNC1CCCCCC1 [C5]
% inhibition (Human TrxR1; [7]): 4.223%
% inhibition (Human TrxR1; [8]): 2.584%
% inhibition (Human TrxR1; [10]): 4.769%
% viability (Vero cells; Conc. 5 µM): 99.0699%
% viability (Vero cells; Conc. 10 µM): 99.036%
% viability (Vero cells; Conc. 25 µM): 93.1095%
% viability (Vero cells; Conc. 35 µM): 87.9829%
% viability (Vero cells; Conc. 50 µM): 82.6807%
% viability ([1]; Conc. 1 µM): 80.9812%
% viability ([1]; Conc. 5 µM): 52.5668%
% viability ([1]; Conc. 15 µM): 62.9498%
% viability ([1]; Conc. 35 µM): 0.09782%
% viability ([1]; Conc. 50 µM): 0.07949%
